Data set [1] is described as follows: Half life in Kunming mouse at 10 mg/kg, po measured upto 24 hrs by LC-MS analysis. It is filed as ADME, organism-based. The following applies: in vivo.
Data set [2] is described as follows: Volume of distribution at steady state in Kunming mouse at 10 mg/kg, iv measured upto 24 hrs by LC-MS analysis. The class given is ADME, organism-based. The following applies: in vivo, read-out: Vdss.
A further data set has as its system Klebsiella pneumoniae. As to the kind of experiment: Antibacterial activity against Klebsiella pneumoniae assessed as bacterial growth inhibition incubated for 24 hrs by broth microdilution method. The class given is functional. (In general: In broth dilution the organism is exposed to a series of concentrations in liquid medium.)
Data set [3] is described as follows: MRT (0 to t) in Kunming mouse at 10 mg/kg, po measured upto 24 hrs by LC-MS analysis. The class given is ADME, organism-based. The settings on record: in vivo.
Data set [4] in a line: AUC (0 to t) in Kunming mouse at 10 mg/kg, iv measured upto 24 hrs by LC-MS analysis. Set-up: time < 24 hrs, dose 10 mg/kg, route iv. The settings on record: in vivo. It is filed as ADME, organism-based.
Data set [5] is described as follows: Cytotoxicity against human L02 cells assessed as cell viability at effective concentration measured after 24 hrs by MTT assay relative to control. The class given is toxicity, cell-based. The following applies: read-out: Activity. Background: Tetrazolium dyes change colour on reduction, which living cells bring about.
The nature of data set [6]: AUMC (0 to t) in Kunming mouse at 10 mg/kg, po measured upto 24 hrs by LC-MS analysis. The class given is ADME, organism-based. The settings on record: in vivo.
A short description of data set [7]: AUMC (0 to infinity) in Kunming mouse at 10 mg/kg, po measured upto 24 hrs by LC-MS analysis. The class given is ADME, organism-based. The following applies: in vivo.
Data set [8] in a line: MRT (0 to infinity) in Kunming mouse at 10 mg/kg, iv measured upto 24 hrs by LC-MS analysis. The following applies: in vivo. It is filed as ADME, organism-based.
In a further data set the test system is Acinetobacter baumannii. As to the kind of experiment: Antibacterial activity against Acinetobacter baumannii infected in mouse assessed as log reduction in viable bacterial count at 30 mg/kg measured for 12 hrs. It is filed as functional.
Data set [9] can be described thus: C0 in Kunming mouse at 10 mg/kg, iv measured upto 24 hrs by LC-MS analysis. The class given is ADME, organism-based. The settings on record: in vivo.
Data set [10] in a line: Cmax in Kunming mouse at 10 mg/kg, po measured upto 24 hrs by LC-MS analysis. The class given is ADME, organism-based. The following applies: in vivo. Set-up: time < 24 hrs, dose 10 mg/kg, route po.
The nature of data set [11]: Clearance in Kunming mouse at 10 mg/kg, iv measured upto 24 hrs by LC-MS analysis. It is filed as ADME, organism-based. The following applies: in vivo.

Converted amounts (≈) assume the structure as drawn. Where only a bound is given, the exact number is not on record here.

Turning to `OCCN(CCO)c1nccc(-n2cncn2)n1`, the half-life (in general, how long it takes for the measured level to halve) in [1] was 263 min. The Vd in data set [2] is 2.1 L/kg. Also, the MIC (commonly the lowest concentration that inhibits growth of the organism) in the data set on Klebsiella pneumoniae was 8 µM (≈ 2 µg/mL). In addition, the MRT last (in general, the average time that molecules of a dose stay in the body) at 24 h in [3] was determined as 3.97 h. Moreover, the AUC(0-t) (usually the area under the concentration-time curve up to a stated or last time point) at 24 h in [4] stood at 2080 ng·h/mL. In addition, the viability at 24 h in data set [5] is > 75%. In data set [6], this molecule showed an AUMCt of 31290 hr.hr.ng/ml. Also, the AUMC in data set [7] was 37723 hr.hr.ng/ml. In addition, the MRT inf (commonly the average time that molecules of a dose stay in the body) in [8] was 3.98 h. Also, the “log(activity)” value with Acinetobacter baumannii is given as 3.5. This molecule came in with a C0 at 24 h in [9] of 2590 ng/mL. The Cmax (commonly the peak of the concentration-time curve) in data set [10] came out at 2130 ng/mL. In data set [11], the CL came out at 506 mL/h/kg.

The values are drawn from ChEMBL document CHEMBL5380831, “Azolylpyrimidinediols as Novel Structural Scaffolds of DNA-Groove Binders against Intractable Acinetobacter baumannii” (J Med Chem, 2023).
